From patent publication EP0815072B1, “RADIOGRAPHIC CONTRASTING AGENT FOR COMPUTERISED TOMOGRAPHY AND UROGRAPHY” (SCHERING AKTIENGESELLSCHAFT, priority 1995, dated 1996)

How the values were obtained:
[1] = Butanol/water (buffer pH 7) partition coefficient; format: physicochemical; conditions: for Verteilungskoeffizient: Butanol/Wasser (Puffer pH 7), n = 4, Mittelwert ± Standardabweichung
Source text: Während Osmolalität, Viskosität und Jodgehalt den strukturisomeren Verbindungen lopamidol und lomeprol sehr ähnlich sind, zeigt sich eine überraschend erhöhte Hydrophilie der erfindungsgemäßen Verbindungen (Tab. 1). Tab.1:
Die Hydrophilie wird nicht wie bei der mit lohexol bezeichneten Verbindung durch die Einführung einer zusätzlichen Hydroxyalkylfunktion erreicht (die den Jodgehalt vermindert und Viskosität und Osmolalität erhöht), sondern ist die überraschende Folge einer neuen sterischen Anordnung der Substituenten an dem jodierten Aromaten.

[2] = Lethal dose after intravenous injection in rats; format: in vivo, Ratten; conditions: rat, in vivo, iv; all three doses pooled, i.v., Ratten; read-out: gestorbene Tiere, alle Dosierungen (%)
Source text: (§1) Die Hydrophilie wird als eine wichtige Voraussetzung für eine Verminderung der bei intravenöser Injektion beobachteten nicht osmolalitätsbedingten Nebenwirkungen angesehen (Dawson P., Clauß W.: Contrast Media in Practice, Springer Verlag Berlin Heidelberg 1993, Seite 11-12). Dazu gehören vor allem Übelkeit und Erbrechen, sowie allergieartige Reaktionen bis hin zum schweren anaphylaktoiden Schock. Andere Testergebnisse, die eine besonders gute Allgemeinverträglichkeit anzeigen, werden in biochemischen, biologischen und toxikologischen (Tab. 2) Untersuchungen gewonnen.

Ratten = assay: Lethal dose after intravenous injection in rats; format: in vivo; conditions: i.v., Ratten (90-110 g), 300 mg Jod/ml, 2 ml/min
Source text: as §1

Compound	Verteilungskoeffizient [1]	Hydrophilie ([1]; comparison with structurally comparable compounds, from the partition coefficient)	mortality [2]	Zahl der gestorbenen Tiere / Gesamtzahl der Tiere (Ratten; Dosis 1: 12 g J/kg)	Zahl der gestorbenen Tiere / Gesamtzahl der Tiere (Ratten; Dosis 2: 15 g J/kg)	Zahl der gestorbenen Tiere / Gesamtzahl der Tiere (Ratten; Dosis 3: 18 g J/kg)
CN(CC(O)CO)C(=O)c1c(I)c(NC(=O)CO)c(I)c(C(=O)NCC(O)CO)c1I (stereo not shown) [Beispiel 1, 5-Hydroxyacetylamino-2,4,6-triiod-isophthalsäure-[(2,3-dihydroxy-N-methyl-propyl)-(2,3-dihydroxypropyl)]-diamid]	0.069 ± 0.011	am stärksten hydrophil	33%	0/4	2/4	2/4
COCC(=O)Nc1c(I)c(C(=O)NCC(O)CO)c(I)c(C(=O)N(C)CC(O)CO)c1I (stereo not shown) [lopromid]	0.149 ± 0.011	–	67%	1/4	3/4	4/4
C[C@H](O)C(=O)Nc1c(I)c(C(=O)NC(CO)CO)c(I)c(C(=O)NC(CO)CO)c1I [lopamidol]	0.089 ± 0.014	–	58%	2/4	1/4	4/4
CC(=O)N(CC(O)CO)c1c(I)c(C(=O)NCC(O)CO)c(I)c(C(=O)NCC(O)CO)c1I (stereo not shown) [lohexol]	0.082 ± 0.005	–	–	–	–	–
CN(C(=O)CO)c1c(I)c(C(=O)NCC(O)CO)c(I)c(C(=O)NCC(O)CO)c1I (stereo not shown) [lomeprol]	0.105 ± 0.006	–	89%	2/3	3/3	3/3
